The record followed here is US20220380314A1, “SUBSTITUTED, SATURATED AND UNSATURATED N-HETEROCYCLIC CARBOXAMIDES AND RELATED COMPOUNDS FOR THEIR USE IN THE TREATMENT OF MEDICAL DISORDERS” (Bial - R&D Investments, S.A., priority 2019, published 2022).

Converted amounts (≈) assume the structure as drawn. Structures can show the parent of a compound that is named as a salt.

The target in one data set is T1, acid ceramidase (hACR) (Homo sapiens, UniProt Q13510).
T1 construct: expressed in transfected cells; cell lysate used
T1 sequence (Q13510 143-395 limits assumed): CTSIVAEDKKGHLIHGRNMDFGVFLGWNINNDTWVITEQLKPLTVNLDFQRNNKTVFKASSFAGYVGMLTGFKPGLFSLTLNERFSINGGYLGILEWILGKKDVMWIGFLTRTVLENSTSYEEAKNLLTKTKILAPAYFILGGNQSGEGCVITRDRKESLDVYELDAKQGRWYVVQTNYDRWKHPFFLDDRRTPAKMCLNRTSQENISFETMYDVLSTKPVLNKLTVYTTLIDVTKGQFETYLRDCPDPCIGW
T1 sequence (Q13510 22-142 limits assumed): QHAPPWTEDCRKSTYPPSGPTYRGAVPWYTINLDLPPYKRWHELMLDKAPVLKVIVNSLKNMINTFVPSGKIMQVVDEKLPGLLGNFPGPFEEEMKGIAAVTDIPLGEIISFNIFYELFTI
Put plainly: Acid ceramidase inhibition, biochemical fluorescent assay with cell lysates overexpressing acid ceramidase, substrate Rbm14-12. As to conditions: cell lysates overexpressing acid ceramidase; 1 hr preincubation at RT; pH 4.5; substrate Rbm14-12 6.3 μM; read-out: hACR IC50. On the procedure: The ability of exemplary compounds to inhibit acid ceramidase was measured.
Cell lysates overexpressing acid ceramidase were used as the enzyme source for compound potency determination in a biochemical fluorescent assay. Briefly, compounds were preincubated with 10 µg protein of cell lysates in a dose-response manner for 1 hr at RT in the assay buffer containing 25 mM NaAC and 100 mM NaCl, pH 4.5. The reaction was initiated by the addition of substrate Rbm14-12 at a final concentration of 6.3 μM. The reaction was run at RT for 1 hr before it was stopped by the addition of the stopping buffer containing 20% methanol (v/v), 1 mg/ml NaIO4, 0.1 M glycine, pH 10.6. The samples were incubated with the stopping buffer at RT for 1 hr to allow the fluorescent product to be formed. Finally the plate was read with SpectraMax i3 plate reader (Molecular Devices) at ex360 nm and em446 nm. Data were collected and used to determine the IC50 values of compounds by curve fitting to the four-parameter inhibition equation.
The symbol “A” indicates inhibition of less than 0.2 μM; the symbol “B” indicates inhibition in the range of 0.2 μM up to 1 μM; and the symbol “C” indicates inhibition of greater than 1 μM.

The nature of data set [1]: Compound solubility in water. It counts as physicochemical.

With `CN1CCC(c2ccc3c(c2)N(C(=O)NCCc2ccccc2)C(C)(C)CC3)CC1` [Example 1, 2,2-Dimethyl-7-(1-methylpiperidin-4-yl)-N-phenethyl-3,4-dihydroquinoline-1(2H)-carboxamide], at acid ceramidase (hACR), the half-inhibitory concentration (IC50) fell in the range of 200 to 1000 nM. Moreover, in data set [1], the solubility was determined as 33.2 µM (≈ 13.5 µg/mL). The like results for `CN1CCC(c2cccc3c2CCC(C)(C)N3C(=O)NCCc2ccccc2)CC1` [Example 2, 2,2-Dimethyl-5-(1-methylpiperidin-4-yl)-N-phenethyl-3,4-dihydroquinoline-1(2H)-carboxamide] were, in that order, under 200 nM and 36.5 µM (≈ 14.8 µg/mL). The like results for `CN1CCC(c2ccc3c(c2)N(C(=O)NCCc2ccccc2)CCC3)CC1` [Example 3, 7-(1-Methylpiperidin-4-yl)-N-phenethyl-3,4-dihydroquinoline-1(2H)-carboxamide] were, in that order, over 1000 nM and 38.7 µM (≈ 14.6 µg/mL). `CC1(C)CCc2ccccc2N1C(=O)NCCc1ccccc1` [Example 6, 2,2-Dimethyl-N-phenethyl-3,4-dihydroquinoline-1(2H)-carboxamide]: the half-inhibitory concentration (IC50) on acid ceramidase (hACR) was in the range of 200 to 1000 nM. The solubility in data set [1] was 3.2 µM (≈ 0.987 µg/mL). The like results for `CN1CC(C)(C)N(C(=O)NCCc2ccccc2)c2ccccc21` [Example 7, 2,2,4-Trimethyl-N-phenethyl-3,4-dihydroquinoxaline-1(2H)-carboxamide] were, in that order, 200 to 1000 nM and 6.7 µM (≈ 2.17 µg/mL). The corresponding values for `CC1(C)CCc2cccnc2N1C(=O)NCCc1ccccc1` [Example 8, 2,2-Dimethyl-N-phenethyl-3,4-dihydro-1,8-naphthyridine-1(2H)-carboxamide] are over 1000 nM and 27.4 µM (≈ 8.48 µg/mL). The like results for `CC1(C)CCc2ncccc2N1C(=O)NCCc1ccccc1` [Example 9, 2,2-Dimethyl-N-phenethyl-3,4-dihydro-1,5-naphthyridine-1(2H)-carboxamide] were, in that order, over 1000 nM and 25.2 µM (≈ 7.8 µg/mL). As to `CC1(C)CCc2ccc(N3CCOCC3)cc2N1C(=O)NCCc1ccccc1` [Example 10, 2,2-Dimethyl-7-morpholino-N-phenethyl-3,4-dihydroquinoline-1(2H)-carboxamide], the IC50 on acid ceramidase (hACR) was over 1000 nM. For the same compound, the solubility in data set [1] was 6.7 µM (≈ 2.64 µg/mL). The corresponding values for `CC1(C)CCc2c(N3CCOCC3)cccc2N1C(=O)NCCc1ccccc1` [Example 11, 2,2-Dimethyl-5-morpholino-N-phenethyl-3,4-dihydroquinoline-1(2H)-carboxamide] are 200 to 1000 nM and 8.1 µM (≈ 3.19 µg/mL). The corresponding values for `Cn1ccnc1-c1ccc2c(c1)N(C(=O)NCCc1ccccc1)C(C)(C)CC2` [Example 12, 2,2-Dimethyl-7-(1-methyl-1H-imidazol-2-yl)-N-phenethyl-3,4-dihydroquinoline-1(2H)-carboxamide] are over 1000 nM and 26.6 µM (≈ 10.3 µg/mL).

For the compound `Cn1ccnc1-c1cccc2c1CCC(C)(C)N2C(=O)NCCc1ccccc1` [Example 13, 2,2-Dimethyl-5-(1-methyl-1H-imidazol-2-yl)-N-phenethyl-3,4-dihydroquinoline-1(2H)-carboxamide], on acid ceramidase (hACR), the half-maximal inhibitory concentration (IC50) is over 1000 nM. This compound also returned a solubility in data set [1] of 33.6 µM (≈ 13.1 µg/mL). For the compound `CC1(C)c2ncccc2CCN1C(=O)NCCc1ccccc1` [Example 14, 8,8-Dimethyl-N-phenethyl-5,6-dihydro-1,7-naphthyridine-7(8H)-carboxamide], the IC50 on acid ceramidase (hACR) is over 1000 nM. Also, in data set [1], the solubility was 24 µM (≈ 7.43 µg/mL). The like results for `CC1(C)c2ccccc2CCN1C(=O)NCCc1ccccc1` [Example 15, 1,1-Dimethyl-N-phenethyl-3,4-dihydroisoquinoline-2(1H)-carboxamide] were, in that order, over 1000 nM and 0.9 µM (≈ 0.278 µg/mL).

`CC1(C)COc2ccccc2N1C(=O)NCCc1ccccc1` [Example 16, 3,3-Dimethyl-N-phenethyl-2H-benzo[b][1,4]oxazine-4(3H)-carboxamide]: the IC50 at acid ceramidase (hACR) was over 1000 nM. The solubility in data set [1] is 3.1 µM (≈ 0.962 µg/mL).

With `CC1(C)CC2(CCCCO2)CCN1C(=O)NCCc1ccccc1` (stereo not drawn) [Example 17, 8,8-Dimethyl-N-phenethyl-1-oxa-9-azaspiro[5.5]undecane-9-carboxamide], the IC50 on acid ceramidase (hACR) is 200 to 1000 nM. In data set [1], this compound yielded a solubility of 28.5 µM (≈ 9.42 µg/mL). The like results for `CC1(C)CCc2ccccc2N1C(=O)NCCOc1ccccc1` [Example 18, 2,2-Dimethyl-N-(2-phenoxyethyl)-3,4-dihydroquinoline-1(2)-carboxamide] were, in that order, 200 to 1000 nM and 1.5 µM (≈ 0.487 µg/mL). The corresponding values for `COC1CC(C)(C)N(C(=O)NCCc2ccccc2)c2ccccc21` (stereo not drawn) [Example 19, 4-Methoxy-2,2-dimethyl-N-phenethyl-3,4-dihydroquinoline-1(2)-carboxamide] are 200 to 1000 nM and 6.5 µM (≈ 2.2 µg/mL).

For `CN1CCC(c2cccc3c2CN(C(=O)NCCc2ccccc2)C(C)(C)C3)CC1` [Example 20, 3,3-Dimethyl-8-(1-methylpiperidin-4-yl)-N-phenethyl-3,4-dihydroisoquinoline-2(1H)-carboxamide], at acid ceramidase (hACR), the IC50 fell in the range of 200 to 1000 nM. In data set [1], this compound gave a solubility of 32.2 µM (≈ 13.1 µg/mL). The corresponding values for `CN1CCC(c2ccc3c(c2)CC(C)(C)N(C(=O)NCCc2ccccc2)C3)CC1` [Example 21, 3,3-Dimethyl-6-(1-methylpiperidin-4-yl)-N-phenethyl-3,4-dihydroisoquinoline-2(1H)-carboxamide] are over 1000 nM and 34.2 µM (≈ 13.9 µg/mL). The corresponding values for `CC1(C)Cc2ccccc2CN1C(=O)NCCc1ccccc1` [Example 22, 3,3-Dimethyl-N-phenethyl-3,4-dihydroisoquinoline-2(1H)-carboxamide] are 200 to 1000 nM and 5.7 µM (≈ 1.76 µg/mL). For `CN1CCC(c2ccc3c(c2)CCC(C)(C)N3C(=O)NCCc2ccccc2)CC1` [Example 23, 2,2-Dimethyl-6-(1-methylpiperidin-4-yl)-N-phenethyl-3,4-dihydroquinoline-1(2H)-carboxamide], the IC50 on acid ceramidase (hACR) was in the range of 200 to 1000 nM. In data set [1], this compound yielded a solubility of 33.6 µM (≈ 13.6 µg/mL).

For `CCCCNC(=O)N1c2cccc(C3CCN(C)CC3)c2CCC1(C)C` [Example 24, N-Butyl-2,2-dimethyl-5-(1-methylpiperidin-4-yl)-3,4-dihydroquinoline-1(2H)-carboxamide], the IC50 at acid ceramidase (hACR) was in the range of 200 to 1000 nM. Also, in data set [1], the concentration in solution (solubility) came to 40.6 µM (≈ 14.5 µg/mL).

In the case of `CC1(C)CCCCN1C(=O)NCCc1ccccc1` [Example 25, 2,2-Dimethyl-N-phenethylpiperidine-1-carboxamide], the IC50 on acid ceramidase (hACR) lay in the range of 200 to 1000 nM. In data set [1], this compound yielded a solubility of 23.2 µM (≈ 6.04 µg/mL). On to `CN1CCN(C2CCN(C(=O)NCCc3ccccc3)C(C)(C)C2)CC1` (stereo not drawn) [Example 26, 2,2-Dimethyl-4-(4-methylpiperazin-1-yl)-N-phenethylpiperidine-1-carboxamide], for which, at acid ceramidase (hACR), the concentration for half-maximal inhibition (IC50) was over 1000 nM. Also, the concentration in solution in data set [1] (solubility) was 43.7 µM (≈ 15.7 µg/mL). Regarding `CCCCNC(=O)N1c2ccccc2CCC1(C)C` [Example 27, N-Butyl-2,2-dimethyl-3,4-dihydroquinoline-1(2H)-carboxamide], at acid ceramidase (hACR), the IC50 was in the range of 200 to 1000 nM. In data set [1], the solubility is 16.8 µM (≈ 4.37 µg/mL). In the case of `COCCNC(=O)N1c2ccccc2CCC1(C)C` [Example 32, N-(2-Methoxyethyl)-2,2-dimethyl-3,4-dihydroquinoline-1(2H)-carboxamide], the concentration in solution in data set [1] (solubility) was 28.7 µM (≈ 7.53 µg/mL). Same read-out and setting: the figure for `COC1CCN(C(=O)NCCc2ccccc2)C(C)(C)C1` (stereo not drawn) [Example 36, 4-Methoxy-2,2-dimethyl-N-phenethylpiperidine-1-carboxamide] is 33.4 µM (≈ 9.7 µg/mL). For the compound `CC1(C)CN(C(=O)OCc2ccccc2)CC(c2ccccc2)N1C(=O)NCCCCc1ccccc1` (stereo not drawn) [Example 164, Benzyl 3,3-dimethyl-5-phenyl-4-(4-phenylbutylcarbamoyl)piperazine-1-carboxylate], at acid ceramidase (hACR), the 50% inhibitory concentration (IC50) is over 1000 nM. Same read-out and setting: in the case of `CN1CC(C)(C)N(C(=O)NCCCCc2ccccc2)CC1c1ccccc1` (stereo not drawn) [Example 166, 2,2,4-Trimethyl-5-phenyl-N-(4-phenylbutyl)piperazine-1-carboxamide] it was under 200 nM.

For `CCCCCNC(=O)N1C(c2ccc(F)cc2)CN(C)CC1(C)C` (stereo not drawn) [Example 167, 6-(4-Fluorophenyl)-2,2,4-trimethyl-N-pentylpiperazine-1-carboxamide hydrochloride], the IC50 at acid ceramidase (hACR) is under 200 nM. With `CN1CC(c2ccc(F)cc2)N(C(=O)NCCOCC2CC2)C(C)(C)C1` (stereo not drawn) [Example 168, N-[2-(Cyclopropylmethoxy)ethyl]-6-(4-fluorophenyl)-2,2,4-trimethylpiperazine-1-carboxamide hydrochloride], the IC50 at acid ceramidase (hACR) was under 200 nM. On the same count and under the same terms, in the case of `CC1(C)CN(C2CC2)CC(c2ccccc2)N1C(=O)NCCCCc1ccccc1` (stereo not drawn) [Example 169, 4-Cyclopropyl-2,2-dimethyl-6-phenyl-N-(4-phenylbutyl)piperazine-1-carboxamide] it was under 200 nM.
